The target in series [1] is T1, HCV polymerase (NS5B570n-Con1) (Hepatitis C virus genotype 1b, UniProt Q9WMX2).
T1 construct: contains a 21 amino acid deletion at the C-terminus relative to the full-length HCV polymerase; 6-histidine (N); made in house; host or cells: E. coli BL21 (DE) pLysS
The series can be described thus: HCV NS5B RNA polymerase activity assay. Type of series: biochemical, HCV Con1 strain. The essentials: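 His6-tagged NS5B Con1 (genotype 1b, 21-aa C-terminal deletion; 20 nM) copied 20 nM cIRES RNA template with [3H]UTP plus 1 μM ATP, CTP and GTP in pH 8.0 Tris buffer with 4 mM MgCl2 and DTT, 2 h at 30 °C. TCA-precipitated RNA counted by scintillation. IC50 from four-parameter fit versus no-compound control, no-enzyme background subtracted.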

In series [2] the test system is HCV replicon cells (2209-23), genotype 1b replicon in Huh7 cells. The series can be described thus: HCV replicon assay (Renilla luciferase reporter). The format is cell-based, HCV genotype 1b. Particulars: Hepatitis C virus, Huh-7, 72 h; cell line 2209-23, three days incubation. (Replicon systems follow genome replication, usually without infectious particles.)
A short description of another series: in vitro. Particulars: human.
In the next series the test system is HCV. To be noted: monotherapy; cited from earlier work.
Where [3] appears, read: IC50 NS5B polymerase assay, Table I.
[4] abbreviates: Polymerase Assay IC50, Table II.

For `CNC(=O)c1c(-c2ccc(Nc3ccccc3)cc2)oc2cc(N(CCO)S(C)(=O)=O)c(OC)cc12` [Compound I-1, 6-[(2-hydroxy-ethyl)-methanesulfonyl-amino]-5-methoxy-2-(4-phenylamino-phenyl)-benzofuran-3-carboxylic acid methylamide], the melting point (commonly the temperature, or range, at which the solid turns liquid) is 144.6 to 146.9 °C. Also, in series [1] (setting [3]), the IC50 (as a rule, the concentration needed to halve the response being measured) was 0.043 µM. For the same compound, the IC50 in series [1] (setting [4]) stood at 0.005 µM. This compound returned an IC50 in series [2] of 0.043 µM. The CC50 in “in vitro” came to 30.6 µM.

For the compound `CNC(=O)c1c(-c2ccc(Nc3ccc(C(C)C)cc3)cc2)oc2cc(N(CCO)S(C)(=O)=O)c(OC)cc12` [Compound I-6], the melting point was in the range of 223.9 to 234.5 °C. For the same compound, the IC50 in series [1] (setting [3]) turned out to be 0.544 µM.

In turn, `CNC(=O)c1c(-c2ccc(Oc3ccc(F)cc3)cc2)oc2cc(N(CCO)S(C)(=O)=O)c(C3CC3)cc12` [Compound I-32, 5-Cyclopropyl-2-[4-(4-fluoro-phenoxy)-phenyl]-6-[(2-hydroxy-ethyl)-methanesulfonyl-amino]-benzofuran-3-carboxylic acid methylamide] gave a melting point of 110 to 115 °C. Further, the IC50 in series [1] (setting [3]) amounted to 0.06 µM.

The compound `CNC(=O)c1c(-c2ccc(Oc3ccccc3)cc2)oc2cc(N(CCO)S(C)(=O)=O)c(C3CC3)cc12` [Compound I-33] yielded a melting point of 110 to 115 °C. Moreover, in series [1] (setting [3]), the IC50 amounted to 0.021 µM.

Consider `CNC(=O)c1c(-c2ccc(Oc3ccc(F)cc3)cc2)oc2cc(NS(C)(=O)=O)c(C3CC3)cc12` [Compound I-40], for which the melting point lay in the range of 169 to 170 °C. The compound also displayed an IC50 in series [1] (setting [3]) of 0.098 µM.

As to `CNC(=O)c1c(-c2ccc(Oc3ccc(F)cc3)cc2)oc2cc(N(CCO)S(C)(=O)=O)ccc12` [Compound I-64, 2-[4-(4-Fluoro-phenoxy)-phenyl]-6-[(2-hydroxy-ethyl)-methanesulfonyl-amino]-benzofuran-3-carboxylic acid methylamide], the melting point was 214.6 to 215.7 °C. In addition, inhibition in series [1] (setting [3]) was half-maximal at 0.415 µM (IC50).

Regarding `CNC(=O)c1c(-c2ccc(Oc3ccc(F)cc3)cc2)oc2cc(N(CCCN)S(C)(=O)=O)c(C3CC3)cc12` [Compound I-69], the IC50 in series [1] (setting [3]) amounted to 0.018 µM; in series [1] (setting [4]), 0.018 µM; in series [2], 0.01 µM. The same compound came in with a CC50 in the series “in vitro” of 4.6 µM.

Turning to `CNC(=O)c1c(-c2ccc(Oc3ccc(F)cc3)cc2)oc2cc(N(CCN)S(C)(=O)=O)c(C3CC3)cc12.Cl` [Compound I-74], the melting point is 223 to 224 °C. Moreover, in series [1] (setting [3]), 0.083 µM corresponded to half-maximal inhibition (IC50).

For the compound `CNC(=O)c1c(-c2ccc(Oc3ccccc3)cc2)oc2cc(N3CCOCC3)c(C3CC3)cc12` [Compound I-77], the melting point lay within 223.4 to 223.9 °C. This compound also showed a half-maximal inhibitory concentration (IC50) in series [1] (setting [3]) of 0.672 µM.

For `CNC(=O)c1c(-c2ccc(Oc3ccccc3)cc2)oc2cc(N3CCCS3(=O)=O)c(C3CC3)cc12` [Compound I-82, 5-Cyclopropyl-6-(1,1-dioxo-1λ^6-isothiazolidin-2-yl)-2-(4-phenoxy-phenyl)-benzofuran-3-carboxylic acid methylamide], the melting point lay within 174 to 176 °C. This compound also had an IC50 in series [1] (setting [3]) of 0.066 µM.

The compound `CNC(=O)c1c(-c2ccc(Oc3ccc(F)cc3)cc2)oc2cc(N(CCS(C)(=O)=O)S(C)(=O)=O)c(C3CC3)cc12` [Compound I-83, 5-cyclopropyl-2-[4-(4-fluoro-phenoxy)-phenyl]-6-[methanesulfonyl-(2-methanesulfonyl-ethyl)-amino]-benzofuran-3-carboxylic acid methylamide] came in with a melting point of 158 to 160 °C. The compound also yielded a half-inhibitory concentration (IC50) in series [1] (setting [3]) of 0.029 µM.

As to `CNC(=O)c1c(-c2ccc(Oc3ccccc3)cc2)oc2cc(N3CCCCS3(=O)=O)c(C3CC3)cc12` [Compound I-93], the melting point was 197 to 199 °C. In series [1] (setting [3]), this compound registered an IC50 of 0.071 µM.

Regarding `CNC(=O)c1c(-c2ccc(Oc3ccccc3)cc2)oc2cc(N3CCNS3(=O)=O)c(C3CC3)cc12` [Compound I-102, 5-Cyclopropyl-6-(1,1-dioxo-1λ^6-[1,2,5]thiadiazolidin-2-yl)-2-(4-phenoxy-phenyl)-benzofuran-3-carboxylic acid methylamide], the melting point lay in the range of 183.4 to 184.5 °C. For the same compound, it took 0.02 µM to reach half-maximal inhibition in series [1] (setting [3]) (IC50).

Compound `CNC(=O)c1c(-c2ccc(Oc3ccc(F)cc3)cc2)oc2cc(C(C)=O)c(OC)cc12` [Compound I-104] had a melting point of 207 to 209 °C. This compound showed an IC50 in series [1] (setting [3]) of 0.139 µM.

In the case of `CNC(=O)c1c(-c2ccc(Oc3ccccc3)cc2)oc2cc(N3CCN(C)S3(=O)=O)c(C3CC3)cc12` [Compound I-105, 5-Cyclopropyl-6-(5-methyl-1,1-dioxo-1λ^6-[1,2,5]thiadiazolidin-2-yl)-2-(4-phenoxy-phenyl)-benzofuran-3-carboxylic acid methylamide], the melting point was 105 to 107 °C. In series [1] (setting [3]), the IC50 was found to be 0.041 µM.

`CNC(=O)c1c(-c2ccc(Oc3ccc(F)cc3)cc2)oc2cc(N(CC(N)CO)S(C)(=O)=O)c(C3CC3)cc12.Cl` (stereo not drawn) [Compound I-107] yielded a melting point of 178 to 180 °C. The IC50 in series [1] (setting [3]) came to 0.019 µM.

Consider `CNC(=O)c1c(-c2ccc(Oc3ccc(F)cc3)cc2)oc2cc(N(CCCNS(C)(=O)=O)S(C)(=O)=O)c(C3CC3)cc12` [Compound I-116], for which, in series [2], half-maximal inhibition (IC50) was put at 0.004 µM.

For `CNC(=O)c1c(-c2ccc(Oc3ccc(F)cc3)cc2)oc2cc(N(CCCN(C)S(C)(=O)=O)S(C)(=O)=O)c(C3CC3)cc12` [Compound I-117], the 50% inhibitory concentration (IC50) in series [1] (setting [3]) amounted to 0.011 µM.

As to `CNC(=O)c1c(-c2ccc(Oc3ccc(F)cc3)cc2)oc2cc(N(CCCS(N)(=O)=O)S(C)(=O)=O)c(C3CC3)cc12` [Compound I-118], the IC50 in series [1] (setting [3]) came out at 0.007 µM.

Consider `CNC(=O)c1c(-c2ccc(Oc3ccc(F)cc3)cc2)oc2cc(N(CCS(N)(=O)=O)S(C)(=O)=O)c(C3CC3)cc12` [Compound I-119, 5-Cyclopropyl-2-[4-(4-fluoro-phenoxy)-phenyl]-6-[methanesulfonyl-(2-sulfamoyl-ethyl)-amino]-benzofuran-3-carboxylic acid methylamide], for which it took 0.014 µM to reach half-maximal inhibition in series [1] (setting [3]) (IC50).

`CNC(=O)c1c(-c2ccc(Oc3ccc(F)cc3)cc2)oc2cc(N(CC[S+](C)[O-])S(C)(=O)=O)c(C3CC3)cc12` (stereo not drawn) [Compound I-120, 5-Cyclopropyl-2-[4-(4-fluoro-phenoxy)-phenyl]-6-[(2-methanesulfinyl-ethyl)-methanesulfonyl-amino]-benzofuran-3-carboxylic acid methylamide] returned an IC50 in series [1] (setting [3]) of 0.019 µM.

`CNC(=O)c1c(-c2ccc(Oc3ccc(F)cc3)cc2)oc2cc(N(CCC[S+](C)[O-])S(C)(=O)=O)c(C3CC3)cc12` (stereo not drawn) [Compound I-121]: the IC50 in series [1] (setting [3]) is 0.005 µM.

In the case of `CNC(=O)c1c(-c2ccc(Nc3cccnc3)cc2)oc2cc(N(CCO)S(C)(=O)=O)c(OC)cc12` [Compound I-122], the IC50 in series [1] (setting [3]) was 2.05 µM.

Compound `CNC(=O)c1c(-c2ccc(Nc3ccccn3)cc2)oc2cc(N(CCO)S(C)(=O)=O)c(OC)cc12` [Compound I-123] yielded a melting point of 241 to 243 °C. The compound also gave an IC50 in series [1] (setting [3]) of 0.156 µM.

For `CNC(=O)c1c(-c2ccc(Nc3ccc(F)cn3)cc2)oc2cc(N(CCO)S(C)(=O)=O)c(OC)cc12` [Compound I-124], the IC50 in series [1] (setting [3]) was found to be 0.195 µM.

In turn, `CNC(=O)c1c(-c2ccc(Oc3ccc(F)cc3)nc2)oc2cc(N(CCO)S(C)(=O)=O)c(OC)cc12` [Compound I-125, 2-[6-(4-Fluoro-phenoxy)-pyridin-3-yl]-6-[(2-hydroxy-ethyl)-methanesulfonyl-amino]-5-methoxy-benzofuran-3-carboxylic acid methylamide] displayed an IC50 in series [1] (setting [3]) of 0.49 µM.

In series [1] (setting [3]), `CNC(=O)c1c(-c2ccc(Nc3ccc(F)cc3)nc2)oc2cc(N(CCO)S(C)(=O)=O)c(OC)cc12` [Compound I-126, 2-[6-(4-Fluoro-phenylamino)-pyridin-3-yl]-6-[(2-hydroxy-ethyl)-methanesulfonyl-amino]-5-methoxy-benzofuran-3-carboxylic acid methylamide] came in with an IC50 of 0.468 µM.

`CNC(=O)c1c(-c2ccc(Oc3ccccn3)cc2)oc2cc(N(CCO)S(C)(=O)=O)c(OC)cc12` [Compound I-127, 6-[(2-Hydroxy-ethyl)-methanesulfonyl-amino]-5-methoxy-2-[4-(pyridin-2-yloxy)-phenyl]-benzofuran-3-carboxylic acid methylamide] yielded an IC50 in series [1] (setting [3]) of 0.611 µM.

For `NC(=O)c1ncn([C@@H]2O[C@H](CO)[C@@H](O)[C@H]2O)n1` [ribavirin, 1-((2R,3R,4S,5R)-3,4-Dihydroxy-5-hydroxymethyl-tetrahydro-furan-2-yl)-1H-[1,2,4]triazole-3-carboxylic acid amide], the “patients in whom serum amino transferase levels are reduced to normal” value in the series with HCV is reported as 40%.

These data come from US8071797B2 (priority 2008, dated 2011).
